Measurements published in US5514713A, “Amidinophenol derivatives” (Ono Pharmaceutical Co., Ltd., priority 1993, dated 1996).
Counter-ions that a name gives are not always drawn.

Experiments:
trypsin = molecular target: T1, trypsin (Bos taurus, UniProt P00760); experiment: Inhibitory activity on trypsin; format: biochemical; settings: trypsin derived from bovine pancreas; BAPNA substrate; pH 8.0; 30° C.; absorbance at 405 nm
T1 construct: from tissue; host or cells: bovine pancreas
T1 sequence (P00760 24-246): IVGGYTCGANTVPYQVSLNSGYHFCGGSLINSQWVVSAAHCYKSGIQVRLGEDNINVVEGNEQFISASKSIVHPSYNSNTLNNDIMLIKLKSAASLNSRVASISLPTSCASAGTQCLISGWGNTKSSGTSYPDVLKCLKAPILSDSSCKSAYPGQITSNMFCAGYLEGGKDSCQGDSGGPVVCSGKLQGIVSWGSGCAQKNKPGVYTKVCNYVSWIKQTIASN
Protocol: (2) Inhibitory activity on trypsin
To a mixture of a 0.2 M HEPES·sodium hydroxide buffer solution (pH 8.0, 100 μl) and distilled water (640 μl), were added solutions of a test compound in respective concentrations or water (10 μl), and a solution of 80 mU/ml trypsin (derived from bovine pancreas) (50 μl) and then the mixture was preincubated for one minute at 30° C. To the solution thus obtained was added 2.5 mM BAPNA (200 μl) and the mixture was incubated at 30° C. The absorbance at 405 nm was measured. Percentage (%) of the absorbance in the presence of a test compound was calculated when the absorbance in the absence thereof was regarded as 100%, and therefrom IC50 value was calculated.
(§1) In the methods hereinbefore described, 10PY-PC represents 3'-palmitoyl-2-(1-opyrenedecanoyl)-L-α-phosphatidylcholine, HEPES represents 4-(2-hydroxyethyl)-1-piperazineethanesulfonic acid, and BAPNA represents α-N-benzoyl-DL-arginine-p-nitroanilide hydrochloride.

PLA2 [1] = settings: Japanese Journal of Clinical Medicine, 48 (1), 165-172, 1990; cited from earlier work
PLA2 [2] = molecular target: T2, PLA2 (Sus scrofa, UniProt P00592); experiment: Inhibitory activity on PLA2; format: biochemical, hog
T2 construct: from tissue; host or cells: hog pancreas
Protocol: A reaction solution including 50 mM tris-HCl buffer (pH7.5, 874 μl; containing 100 mM sodium chloride, 1 mM EDTA), 1M calcium chloride (6 μl), 1% bovine serum albumin (10 μl) and 2.5 mM 10PY-PC (10 μl), was prepared. To the solution were added solutions of a test compound in respective concentrations or water (50 μl), and a solution of 10 mU/ml PLA2 (derived from hog pancreas) (50 μl). The appearance of fluorescence was measured (Ex=345 nm, Em=396 nm). Percentage of the strength of fluorescence in the presence of a test compound was calculated when the strength of that in the absence thereof was regarded as 100%, and therefrom IC50 value was calculated.
as §1

T2 sequence (P00592 23-146): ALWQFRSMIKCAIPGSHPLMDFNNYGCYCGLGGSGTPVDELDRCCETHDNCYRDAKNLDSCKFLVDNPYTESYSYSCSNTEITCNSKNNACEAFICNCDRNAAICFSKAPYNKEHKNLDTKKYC

`COCCCN(CC(=O)O)C(=O)/C(C)=C/c1ccc(C(=O)Oc2ccc(C(=N)N)cc2)cc1` [Example 3, p-(p-Amidinophenoxycarbonyl)-α-methylcinnamic acid N-carboxylmethyl-N-3-methoxypropylamide methanesulfonate] showed an IC50 (trypsin) of 140 nM.

For `N=C(N)Nc1ccc(C(=O)Oc2ccc3cc(C(=N)N)ccc3c2)cc1` [nafamostat mesylate], the “inhibitory activity on PLA2 (in words)” value (PLA2 [1]) is listed as “inhibitory activity on PLA2”.

Compound `CCOC(=O)CCN(CCCOC)C(=O)/C(C)=C/c1ccc(C(=O)Oc2ccc(C(=N)N)cc2)cc1` [Example 1, p-(p-Amidinophenoxycarbonyl)-α-methylcinnamic acid N-2-ethoxycarbonylethyl-N-3-methoxypropylamide hydrochloride] has an IC50 (trypsin) of 136 nM and an IC50 (PLA2 [2]) of 107 µM.

For `CN(C)C(=O)COC(=O)Cc1ccc(OC(=O)c2ccc(NC(=N)N)cc2)cc1` [camostat mesylate], the “inhibitory activity on PLA2 (in words)” value (PLA2 [1]) is listed as “inhibitory activity on PLA2”.

`CCOC(=O)C(C(=O)OCC)N(CCCOC)C(=O)/C(C)=C/c1ccc(C(=O)Oc2ccc(C(=N)N)cc2)cc1` [1(b), p-(p-Amidinophenoxycarbonyl)-α-methylcinnamic acid N-1,1-bis(ethoxycarbonyl)methyl-N-3-methoxypropylamide acetate] showed an IC50 (trypsin) of 170 nM and an IC50 (PLA2 [2]) of 124 µM.

In the case of `CCOC(=O)CN(CCCOC)C(=O)/C(C)=C/c1ccc(C(=O)Oc2ccc(C(=N)N)cc2)cc1` [Example 1(a), acetate], the IC50 (trypsin) is reported as 253 nM and the IC50 (PLA2 [2]) is reported as 106 µM.
